Laboratory results published in ChEMBL document CHEMBL1146777, “Interaction with the S1 beta-pocket of urokinase: 8-heterocycle substituted and 6,8-disubstituted 2-naphthamidine urokinase inhibitors” (Bioorg Med Chem Lett, 2004).

Columns and labels:
[1] = target: Tissue-type plasminogen activator (Homo sapiens, UniProt P00750); experiment: Binding affinity towards tissue type plasminogen activator
[2] = target: Plasminogen (Homo sapiens, UniProt P00747); experiment: Binding affinity against plasmin
Sequence of Plasminogen (P00747 97-580 limits assumed): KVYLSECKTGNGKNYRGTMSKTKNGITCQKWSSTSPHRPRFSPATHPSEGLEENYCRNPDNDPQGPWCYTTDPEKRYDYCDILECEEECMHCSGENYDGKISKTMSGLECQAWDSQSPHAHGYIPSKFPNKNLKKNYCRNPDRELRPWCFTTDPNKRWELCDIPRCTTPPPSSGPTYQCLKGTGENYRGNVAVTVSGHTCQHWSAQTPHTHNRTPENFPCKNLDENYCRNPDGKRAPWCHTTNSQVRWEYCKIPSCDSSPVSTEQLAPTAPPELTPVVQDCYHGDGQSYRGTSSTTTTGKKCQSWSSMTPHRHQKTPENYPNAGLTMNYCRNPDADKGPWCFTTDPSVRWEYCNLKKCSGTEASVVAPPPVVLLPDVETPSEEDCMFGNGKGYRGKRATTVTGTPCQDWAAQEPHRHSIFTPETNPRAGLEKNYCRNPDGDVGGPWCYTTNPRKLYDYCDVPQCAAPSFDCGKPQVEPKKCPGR
Sequence of Plasminogen (P00747 581-810 limits assumed): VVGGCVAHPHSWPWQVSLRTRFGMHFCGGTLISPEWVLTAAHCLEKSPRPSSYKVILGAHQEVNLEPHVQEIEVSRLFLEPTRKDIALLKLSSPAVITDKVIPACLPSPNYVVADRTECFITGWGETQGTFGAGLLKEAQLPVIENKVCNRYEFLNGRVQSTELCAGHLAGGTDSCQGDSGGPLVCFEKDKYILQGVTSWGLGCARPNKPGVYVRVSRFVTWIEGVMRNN

[3] = target: Serine protease 1 (Homo sapiens, UniProt P07477); experiment: Binding affinity against trypsin
Sequence of Serine protease 1 (P07477 whole entry): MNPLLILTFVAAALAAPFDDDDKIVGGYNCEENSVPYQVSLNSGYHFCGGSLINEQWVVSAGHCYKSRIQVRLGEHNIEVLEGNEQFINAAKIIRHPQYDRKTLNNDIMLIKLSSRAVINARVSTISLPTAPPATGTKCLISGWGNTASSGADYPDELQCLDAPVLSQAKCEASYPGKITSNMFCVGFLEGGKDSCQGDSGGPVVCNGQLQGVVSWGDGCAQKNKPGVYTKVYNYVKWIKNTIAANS

[4] = target: Prothrombin (Homo sapiens, UniProt P00734); experiment: Binding affinity against thrombin
[5] = Binding affinity against trypsin
[6] = target: Urokinase-type plasminogen activator (Homo sapiens, UniProt P00749)
Description: Binding affinity towards Urokinase-type plasminogen activator (urokinase)

Sequence of Tissue-type plasminogen activator (P00750 whole entry): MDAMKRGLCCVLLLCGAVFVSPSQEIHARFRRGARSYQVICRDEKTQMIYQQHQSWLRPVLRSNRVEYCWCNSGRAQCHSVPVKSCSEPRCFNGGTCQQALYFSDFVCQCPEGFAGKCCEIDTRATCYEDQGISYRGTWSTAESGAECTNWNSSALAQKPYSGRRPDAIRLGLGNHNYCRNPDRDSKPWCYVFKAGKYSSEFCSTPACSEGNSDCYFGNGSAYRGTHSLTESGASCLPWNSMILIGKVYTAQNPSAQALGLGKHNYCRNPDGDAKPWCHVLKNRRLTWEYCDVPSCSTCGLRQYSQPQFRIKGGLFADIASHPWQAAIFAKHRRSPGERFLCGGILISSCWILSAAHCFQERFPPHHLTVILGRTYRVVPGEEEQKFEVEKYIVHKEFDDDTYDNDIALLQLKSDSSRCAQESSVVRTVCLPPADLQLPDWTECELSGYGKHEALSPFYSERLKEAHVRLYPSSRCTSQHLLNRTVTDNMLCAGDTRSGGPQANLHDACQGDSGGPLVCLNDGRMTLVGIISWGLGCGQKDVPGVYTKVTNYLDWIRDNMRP

Compound	Ki [1] [nM]	Ki [2] [nM]	Ki [3] [nM]	Ki [4] [nM]	Ki [5] [nM]	Ki [6] [nM]
COc1ccc2ccc(C(=N)N)cc2c1-c1cnn(C)c1						4600
CCS(=O)(=O)c1cc(-c2cc(C(=O)Nc3ccccc3)cc3ccc(C(=N)N)cc23)co1	8300	56	3.5	290		
N=C(N)c1ccc2cc(C(=O)Nc3ccccc3)cc(C3CCOC3)c2c1 (stereo unspecified)	870	400	30	360		106
N=C(N)c1ccc2ccccc2c1	> 100000				7800	
COc1ccc2ccc(C(=N)N)cc2c1-c1ccoc1	18000	9400	1200	1300		
N=C(N)c1ccc2cc(C(=O)Nc3ccc(CN)cc3)cc(Nc3ncccn3)c2c1	680	150	20	940		
N=C(N)c1ccc2cccc(Nc3ncccn3)c2c1	24000	3800	1700	3200		
N=C(N)c1ccc2cccc(N)c2c1	27000	6600	200	5200		

Continued, values first:

Ki [1] [nM]	Ki [2] [nM]	Ki [3] [nM]	Ki [4] [nM]	Ki [5] [nM]	Ki [6] [nM]	Compound
7400	6000	320	450			COc1ccc2ccc(C(=N)N)cc2c1C1CCOC1 (stereo unspecified)
				330		N=C(N)c1ccc2cc(C(=O)Nc3ccccc3)ccc2c1
3300	53	11	120		40	CCSc1cc(-c2cc(C(=O)Nc3ccccc3)cc3ccc(C(=N)N)cc23)co1
1600	38	3	610		2.1	CCS(=O)(=O)c1cc(-c2cc(C(=O)Nc3cccc(OC4CCCC4)c3)cc3ccc(C(=N)N)cc23)co1
130	190	12	1100			CC(C)Oc1cccc(NC(=O)c2cc(C3CCOC3)c3cc(C(=N)N)ccc3c2)c1 (stereo unspecified)
180	320	45	130		91	N=C(N)c1ccc2cc(C(=O)Nc3ccccc3)cc(-c3ccoc3)c2c1
810	90	40	170		2	[H]/N=C(/N)c1ccc2cc(C(=O)Nc3ccccc3)cc(Nc3ncccn3)c2c1
> 100000	8500	2700	7100			COc1ccc2ccc(C(=N)N)cc2c1-c1cnn(S(C)(=O)=O)c1
